# From patent US20260263547A1, “COMPOSITION FOR PREVENTING, AMELIORATING, OR TREATING ARTHRITIS, CONTAINING POTENTILLA CHINENSIS EXTRACT OR APIGENIN-7-O-GLUCURONIDE AS ACTIVE INGREDIENT” (BELABELBIO INC., priority 2023, published 2026)
# How the values were obtained:
# [1] = test system: COX-2 mRNA; assay: LPS-induced COX-2 mRNA expression in RAW264.7 macrophages (real-time PCR); format: cell-based; details: LPS 500 ng/mL, 24 hours, extract 50, 100, 200 ppm, apigenin-7-O-glucuronide 50, 100, 200 μM
# Experimental: (§1) To confirm the inhibitory efficacy of the extract of Potentilla chinensis from Example 1 and apigenin-7-O-glucuronide from Example 2 on LPS-induced COX-2 mRNA expression, the expression level of COX-2 mRNA was measured using real-time polymerase chain reaction (PCR). Specifically, RAW264.7 macrophages were obtained from the American Type Culture Collection (ATCC, MD, USA) and cultured in DMEM medium containing 10% FBS and 1% antibiotic-antimycotic under 5% CO2 at 37° C. The cells were seeded into 6-well plates at a density of 8.0×10^5 cells/2.0 mL/well and allowed to adhere for 24 hours, then treated with LPS (500 ng/mL) in DMEM to induce inflammation. The extract of Potentilla chinensis from Example 1 was treated at concentrations of 50, 100, and 200 ppm, and apigenin-7-O-glucuronide from Example 2 was treated at concentrations of 50, 100, and 200 μM, followed by incubation for 24 hours. After 24 hours, COX-2 mRNA was extracted from the cells, synthesized into cDNA, and quantitative real-time PCR was performed using specific primers to evaluate the expression level of COX-2.
# [2] = test system: Collagen Type II Alpha 1; assay: IL-1β-induced Collagen Type II Alpha 1 synthesis in SW-1353 chondrocytes (ELISA); format: cell-based, Human; details: IL-1β 40 ng/ml, 24 hours, extract 50, 100, 200 ppm, apigenin-7-O-glucuronide 50, 100, 200 μM
# Experimental: To evaluate the stimulatory efficacy of the extract of Potentilla chinensis from Example 1 and apigenin-7-O-glucuronide from Example 2 on IL-1β-induced Collagen Type II Alpha 1 synthesis in chondrocytes, the secretion of Collagen Type II Alpha 1 was measured using a Human Collagen II Alpha 1 ELISA kit (NBP2-75853, Novus, USA). Specifically, SW-1353 chondrocytes were obtained from the American Type Culture Collection (ATCC, MD, USA) and cultured in DMEM medium containing 10% FBS and 1% antibiotic-antimycotic under 5% CO2 at 37° C. The cells were seeded into 6-well plates at a density of 2.0×10^5 cells/2.0 mL/well and allowed to adhere for 24 hours, then treated with IL-1β (40 ng/ml) in DMEM. The extract of Potentilla chinensis from Example 1 was treated at concentrations of 50, 100, and 200 ppm, and apigenin-7-O-glucuronide from Example 2 was treated at concentrations of 50, 100, and 200 μM, followed by incubation for 24 hours. After 24 hours, the amount of Collagen II Alpha 1 in the supernatant was quantified using the ELISA kit, and the results are shown in FIGS. 9A and 9B.
# [3] = test system: MMP-9; assay: PMA-induced MMP-9 secretion in SW-1353 chondrocytes (ELISA); format: cell-based, Human; details: PMA 50 ng/mL, 24 hours, apigenin-7-O-glucuronide 50, 100, 200 μM
# Experimental: To evaluate the inhibitory efficacy of apigenin-7-O-glucuronide from Example 2 on PMA-induced MMP-9 production in chondrocytes, the amount of MMP-9 secreted was measured using a Human MMP-9 ELISA kit (ab246539, Abcam, USA). Specifically, SW-1353 chondrocytes were obtained from the American Type Culture Collection (ATCC, MD, USA) and cultured in DMEM medium containing 10% FBS and 1% antibiotic-antimycotic under 5% CO2 at 37° C. The cells were seeded into 6-well plates at a density of 2.0×10^5 cells/2.0 mL/well and allowed to adhere for 24 hours, then treated with PMA (50 ng/mL) in DMEM. The extract of Potentilla chinensis from Example 1 was treated at concentrations of 50, 100, and 200 ppm, and apigenin-7-O-glucuronide from Example 2 was treated at concentrations of 50, 100, and 200 μM, followed by incubation for 24 hours. After 24 hours, the amount of MMP-1 in the supernatant was quantified using the ELISA kit, and the results are shown in FIG. 8.
# [4] = test system: nitric oxide (NO) production; assay: LPS-induced nitric oxide (NO) production in RAW264.7 macrophages (Griess reagent); format: cell-based; details: LPS 500 ng/ml, 24 hours, extract 50, 100, 200 ppm, apigenin-7-O-glucuronide 50, 100, 200 μM
# Experimental: To confirm the NO-reducing effect of the extract of Potentilla chinensis from Example 1 and apigenin-7-O-glucuronide from Example 2, an inflammatory response was induced with LPS and subsequent changes in NO were measured. Specifically, RAW264.7 macrophages were obtained from the American Type Culture Collection (ATCC, MD, USA) and cultured in DMEM (Dulbecco's Modified Eagle's Medium) containing 10% FBS and 1% antibiotic-antimycotic under 5% CO2 at 37° C. The cells were seeded into 6-well plates at a density of 8.0×10^5 cells/1.5 mL/well and allowed to adhere for 24 hours, then treated with LPS (500 ng/ml) to induce inflammation. The extract of Potentilla chinensis from Example 1 was added at concentrations of 50, 100, and 200 ppm, and apigenin-7-O-glucuronide from Example 2 was added at concentrations of 50, 100, and 200 μM, followed by incubation for 24 hours. Next, 100 μL of the culture supernatant was transferred to a 96-well plate, mixed with 100 μL of Griess reagent (0.1% N-(1-naphtyl)ethylenediamine, 1% sulfanilamide), and reacted for 10 minutes. The absorbance of the resulting azo-derivative was measured at 540 nm using a microplate reader (BioTek, Vermont, USA). The measured absorbance was converted into nitrite concentration using a standard curve prepared with sodium nitrite dilutions, and the amount of NO produced was calculated.
# [5] = test system: MMP-1; assay: PMA-induced MMP-1 secretion in SW-1353 chondrocytes (ELISA); format: cell-based, Human; details: PMA 50 ng/mL, 24 hours, extract 50, 100, 200 ppm, apigenin-7-O-glucuronide 50, 100, 200 μM
# Experimental: To evaluate the inhibitory efficacy of the extract of Potentilla chinensis from Example 1 and apigenin-7-O-glucuronide from Example 2 on PMA-induced MMP-1 production in chondrocytes, the amount of MMP-1 secreted was measured using a Human MMP-1 ELISA kit (ab100603, Abcam, USA). Specifically, SW-1353 chondrocytes were obtained from the American Type Culture Collection (ATCC, MD, USA) and cultured in DMEM medium containing 10% FBS and 1% antibiotic-antimycotic under 5% CO2 at 37° C. The cells were seeded into 6-well plates at a density of 2.0×10^5 cells/2.0 mL/well and allowed to adhere for 24 hours, then treated with PMA (50 ng/mL) in DMEM. The extract of Potentilla chinensis from Example 1 was treated at concentrations of 50, 100, and 200 ppm, and apigenin-7-O-glucuronide from Example 2 was treated at concentrations of 50, 100, and 200 μM, followed by incubation for 24 hours. After 24 hours, the amount of MMP-1 in the supernatant was quantified using the ELISA kit, and the results are shown in FIGS. 6A and 6B.
# [6] = test system: IL-1β mRNA; assay: LPS-induced IL-1β mRNA expression in RAW264.7 macrophages (real-time PCR); format: cell-based; details: LPS 500 ng/mL, 24 hours, extract 50, 100, 200 ppm, apigenin-7-O-glucuronide 50, 100, 200 μM
# Experimental: as §1, with “Specifically,” for “To confirm the inhibitory efficacy of the extract of Potentilla chinensis from Example 1 and apigenin-7-O-glucuronide from Example 2 on LPS-induced COX-2 mRNA expression, the expression level of COX-2 mRNA was measured using real-time polymerase chain reaction (PCR). Specifically,”, “cells/1.5” for “cells/2.0”, “IL-1β” for “COX-2”, “IL-1β.” for “COX-2.”
compound,measurement,setting,value
O=C(O)[C@H]1O[C@@H](Oc2cc(O)c3c(=O)cc(-c4ccc(O)cc4)oc3c2)[C@H](O)[C@@H](O)[C@@H]1O [apigenin-7-O-glucuronide],LPS-induced COX-2 mRNA expression,[1],significantly inhibited COX-2 mRNA expression
same,IL-1β-induced Collagen Type II Alpha 1 synthesis,[2],significantly increased Collagen Type II Alpha 1 synthesis in a concentration-dependent manner
same,PMA-induced MMP-9 secretion,[3],significantly inhibited MMP-9 secretion in a concentration-dependent manner
same,LPS-induced NO production,[4],significantly inhibited NO production in a concentration-dependent manner
same,PMA-induced MMP-1 secretion,[5],significantly inhibited MMP-1 secretion in a concentration-dependent manner
same,LPS-induced IL-1β mRNA expression,[6],significantly inhibited IL-1β mRNA expression in a concentration-dependent manner
